Data reported in patent publication US7179842B2, “Method of treating non-insulin dependent diabetes mellitus with phytanic acid derivatives” (priority 2000, dated 2007).
Read-outs that look alike come from different tables or passages of the source.

Columns and labels:
GLUT-1 mRNA = test: Quantitative RT-PCR (TaqMan) mRNA level, GLUT-1; assay type: cell-based, rat; conditions: for GLUT-1 mRNA induction / GLUT-1 mRNA levels: 24 h
Protocol: (§1) The data is presented as means of 3 independent experiments.
(§2) For the quantification of the expression levels the novel Real Time Quantitative TaqMan™ PCR using the multiplex method was employed. Total RNA was isolated using the RNeasy kit from QIAGEN (Valencia, Calif.). The first strand cDNA was synthesized in a 20 μl reaction from 5 μg total RNA by reverse transcription with the. […] Subsequently the cDNA was diluted to 500 μl. In a 50 μl reaction, 10 μl cDNA was amplified in the 7700 Sequence Detector (PE Biosystems, Foster City, Calif.), using the Universal Master Mix (PE Biosystems, Foster City, Calif.) and the following PCR-primers and TaqMan™-probes at the concentrations of 300 nM and 100 nM, respectively, and PCR-primers and TaqMan™-probes for the reference gene β-actin at concentration of 50 nM.
(§3) The induction of gene expression, and corresponding error bars were calculated from 3 independent experiments using the ΔCT method according to the manufacturer's protocol.

GLUT-2 mRNA = test: Quantitative RT-PCR (TaqMan) mRNA level, GLUT-2; assay type: cell-based, rat; conditions: 24 h
Protocol: as §1, §2, §3

glucokinase mRNA = test: Quantitative RT-PCR (TaqMan) mRNA level, glucokinase; assay type: cell-based, rat; conditions: 100 μM, 24 h
Protocol: as §1, §2, §3

PEPCK mRNA = test: Quantitative RT-PCR (TaqMan) mRNA level, PEPCK; assay type: cell-based, rat
Protocol: as §1, §2, §3

RXR [1] = conditions: cited from earlier work
[2] = target: all-trans-retinoic acid receptor (RAR); conditions: cited from earlier work
[3] = adult mice, 0.5% phytol diet for 21 days; cited from earlier work
[4] = cited from earlier work
Rat primary hepatocytes [5] = test: [3H]-2-deoxy-D-glucose uptake in hepatocytes; assay type: cell-based; conditions: 24 h treatment
Protocol: Rat primary hepatocytes were cultured for 24 h at 37° C. in media containing phytanic acid 10 μM (□) and 100 μM (▪), palmitic acid 100 μM ( ), DHA 100 μM (∘), and control (▴). Subsequently [3H]-2-deoxy-D-glucose uptake was measured after 15, 30, and 60 min incubation period.
Cells cultured in 24-well plates were treated for 24 h with phytanic acid, palmitic acid, and DHA. Subsequently the medium was removed and cells were washed twice with pre-warmed phosphate buffered saline, pH 7.4 (PBS). 500 μl of pre-warmed glucose reaction mixture (0.01 mM 2-deoxy-D-glucose and 3 μCi/ml [3H]-2-deoxy-D-glucose in PBS) was then added to the cells. The reaction mixture was further incubated at 37° C. for different time intervals. The reaction was terminated by aspirating the reaction mixture and washing the cells twice with ice cold 10 mM 2-deoxy-D-glucose in PBS. Cells were then solubilized with 500 μl of 1% sodium dodecyl sulfate, 400 μl of which was transferred to scintillation vials containing 5 ml Quickszint 1 (Zinsser Analytic, Frankfurt, Germany). Radioactivity was counted in a Tri-Carb 2500 (Packard, Meriden, Conn.) liquid scintillation counter. The remaining lysate was used for protein content determination with the BCA Protein Assay Reagent Kit (Pierce, Rockford, Ill.). Data are expressed as means±SD from 3 independent experiments.

[6] = system: cytochrome P450/4A1 (Cyp4al) mRNA; test: Quantitative RT-PCR (TaqMan) mRNA level, Cyp4a1; assay type: cell-based, rat; conditions: 10 μM for 24 h
Protocol: (§4) The mRNA levels were determined with the TaqMan™ methodology after a 24 h stimulation of the rat primary hepatocytes with 10 μM phytanic acid, palmitic acid, and DHA. mRNA levels were normalized to β-actin expression and expressed relative to untreated cells. The data is presented as means of 3 independent experiments. Error bars were calculated as described in Example 3.
(§5) For the quantification of the expression levels the novel Real Time Quantitative TaqMan™ PCR using the multiplex method was employed. Total RNA was isolated using the RNeasy kit from QIAGEN (Valencia, Calif.). The first strand cDNA was synthesized in a 20 μl reaction from 5 μg total RNA by reverse transcription with the. SuperScriptII™ Reverse Transcriptase Kit (Life Technologies Inc., Coralville Iowa) and 100 ng random hexamers, as previously described (Zimmermann, U., Fluehmann, B., Born, W., Fischer, J., A. & Muff, R. (1997) Coexistence of Novel Amylin-Binding Sites With Calcitonin Receptors in Human Breast Carcinoma Mcf-7 Cells, Journal of Endocrinology. 155, 423–431). Subsequently the cDNA was diluted to 500 μl. […]
as §3

HMG-CoA reductase mRNA = test: Quantitative RT-PCR (TaqMan) mRNA level, HMG-CoA reductase; assay type: cell-based, rat; conditions: 10 μM for 24 h
Protocol: as §4, §5, §3

[7] = system: lipoprotein lipase (LPL) mRNA; test: Quantitative RT-PCR (TaqMan) mRNA level, LPL; assay type: cell-based, rat; conditions: 10 μM for 24 h
Protocol: as §4, §5, §3

[8] = system: low-density lipoprotein receptor (LDLR) mRNA; test: Quantitative RT-PCR (TaqMan) mRNA level, LDLR; assay type: cell-based, rat; conditions: 10 μM for 24 h
Protocol: as §4, §5, §3

[9] = system: tumor necrosis factor α (TNFα) mRNA; test: Quantitative RT-PCR (TaqMan) mRNA level, TNFα; assay type: cell-based, rat; conditions: 10 μM for 24 h
Protocol: as §4, §5, §3

[10] = system: apolipoprotein A1 (ApoA1) mRNA; test: Quantitative RT-PCR (TaqMan) mRNA level, ApoA1; assay type: cell-based, rat; conditions: 10 μM for 24 h
Protocol: as §4, §5, §3

[11] = system: apolipoprotein E (ApoE) mRNA; test: Quantitative RT-PCR (TaqMan) mRNA level, ApoE; assay type: cell-based, rat; conditions: 10 μM for 24 h
Protocol: as §4, §5, §3

[12] = system: liver fatty acid binding protein (LFABP) mRNA; test: Quantitative RT-PCR (TaqMan) mRNA level, LFABP; assay type: cell-based, rat; conditions: 10 μM for 24 h
Protocol: as §4, §5, §3

plasma insulin = test: In vivo study, plasma insulin in rats fed phytanic acid; design: species or system male Wistar rats; conditions: 150 and 750 mg phytanic acid/kg feed, day 7, vs control chow
Protocol: Male Wistar rats were adapted for two days and then fed with the respective substance. The values are means±SD (see Example 4).
To determine the beneficial effect of phytanic acid on plasma insulin levels, a study was performed using male Wistar rats. The animals were adapted for two days and then fed with control chow, 150 mg phytanic acid/kg feed (P-10), and 750 mg phytanic acid/kg feed (P-50), respectively. Blood samples were taken at day 7 and the insulin concentration in the plasma was measured (FIG. 7).

Rat primary hepatocytes [13] = conditions: 24 h, 1 mM
RXR [14] = conditions: read-out: RXR receptor binding IC50; cited from earlier work
PPARα = target: T1, PPARα (Homo sapiens, UniProt Q07869); conditions: read-out: Kd-value as PPARα ligand; cited from earlier work
T1 sequence (Q07869 1-468): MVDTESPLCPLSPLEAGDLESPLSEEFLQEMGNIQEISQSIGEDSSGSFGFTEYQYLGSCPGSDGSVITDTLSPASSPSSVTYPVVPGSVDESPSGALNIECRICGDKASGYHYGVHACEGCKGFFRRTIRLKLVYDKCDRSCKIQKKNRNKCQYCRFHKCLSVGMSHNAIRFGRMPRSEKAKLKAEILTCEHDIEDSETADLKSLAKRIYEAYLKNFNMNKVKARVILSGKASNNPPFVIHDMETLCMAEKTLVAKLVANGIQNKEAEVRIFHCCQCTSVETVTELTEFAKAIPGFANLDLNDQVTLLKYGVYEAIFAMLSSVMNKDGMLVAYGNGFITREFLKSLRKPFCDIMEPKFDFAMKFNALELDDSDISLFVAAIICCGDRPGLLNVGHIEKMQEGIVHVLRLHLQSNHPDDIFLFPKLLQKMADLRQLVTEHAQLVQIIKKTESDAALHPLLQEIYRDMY

[15] = concentrations lower than 100 μM

CCCCCCCCCCCCCCCC(=O)O [palmitic acid, reference compound]
GLUT-1 mRNA induction (GLUT-1 mRNA; 100 μM): 2.4 (1.7–3.3) fold
GLUT-1 mRNA levels (GLUT-1 mRNA; [15]): did not affect
GLUT-2 mRNA levels (GLUT-2 mRNA; low concentrations): minor induction
transcription of glucokinase mRNA (glucokinase mRNA): reduced
transcription of PEPCK mRNA (PEPCK mRNA; 100 μM, 24 h): reduced

CC/C=C\C/C=C\C/C=C\C/C=C\C/C=C\C/C=C\CCC(=O)O [DHA, docohexaenoic acid, reference compound]
GLUT-1 mRNA levels (GLUT-1 mRNA; concentrations up to 100 μM): did not affect
GLUT-2 mRNA levels (GLUT-2 mRNA): did not affect
transcription of glucokinase mRNA (glucokinase mRNA): reduced
transcription of PEPCK mRNA (PEPCK mRNA; 100 μM, 24 h): reduced

CC1=C(/C=C/C(C)=C\C=C\C(C)=C\C(=O)O)C(C)(C)CCC1 [9-cis-retinoic acid, reference compound]
EC50 ([2]; read-out: RAR activation EC50): 13 nM

C/C(=C\CO)CCC[C@H](C)CCC[C@H](C)CCCC(C)C [phytol]
cholesterol serum levels [3]: remained unaffected
decrease in triglyceride serum levels [3]: 40%
intestinal absorption from dietary chlorophyll ([4]; rat and man): minimal
absorption compared with phytanic acid ([4]; rats): much less well adsorbed than phytanic acid

CC(C)CCCC(C)CCCC(C)CCCC(C)CC(=O)O (stereo not shown) [phytanic acid]
2-deoxy-D-glucose uptake vs control, palmitic acid or DHA (Rat primary hepatocytes [5]; 100 μM, uptake over 15, 30, 60 min): substantial increase
2-deoxy-D-glucose uptake (Rat primary hepatocytes [5]; [15]): no measurable effect
GLUT-1 mRNA induction (GLUT-1 mRNA; 100 μM): 2.2 (1.6–2.9) fold
GLUT-1 mRNA maximal induction (GLUT-1 mRNA; 100 μM, after 6 hours, normalized to β-actin, relative to untreated): 5.6 (5.1–6.2) fold
GLUT-1 mRNA levels (GLUT-1 mRNA; [15]): did not affect
GLUT-2 mRNA maximal induction (GLUT-2 mRNA; 100 μM): 3.2 (2.7–3.8) fold
GLUT-2 mRNA induction (GLUT-2 mRNA; 0.01–100 μM): at least 2 fold
glucokinase mRNA induction (glucokinase mRNA): 3.0 (2.5–3.4) fold
PEPCK transcript (PEPCK mRNA; 10 μM for 24 h): increase
PEPCK mRNA induction (PEPCK mRNA; 100 μM, 24 h): 2.5 (1.7–3.6) fold
PEPCK mRNA maximal induction (PEPCK mRNA; 100 μM, after 6 hours): 4.4 (3.4–5.7) fold
Cyp4a1 transcript [6]: increase
HMG-CoA reductase transcript (HMG-CoA reductase mRNA): increase
LPL transcript [7]: increase
LDLR transcript [8]: increase
TNFα transcript [9]: increase
ApoA1 mRNA [10]: downregulated
ApoE mRNA [11]: downregulated
LFABP mRNA levels [12]: remained unaffected
plasma insulin (plasma insulin): could reduce the plasma insulin
cells survived compared to untreated (Rat primary hepatocytes [13]): 54±17%
IC50 (RXR [14]): 2300 nM
EC50 (RXR [1]; read-out: RXR transcriptional effects EC50): 3000 nM
activity on retinoid receptors (RXR vs RAR) [2]: restricted to RXR receptors
Kd (PPARα): 10 nM
